Test results published in ChEMBL document CHEMBL3137667, “[Drug-induced liver injury; fourteenth updated edition of the bibliographic database of liver injuries and related drugs]” (Gastroenterol Clin Biol, 2004).

What was measured:
[1] = human
[2] = Times to onset, minimal and maximal, observed in the indexed observations. [column 'DELAI' in source]; details: human
[3] = human; remark: listed apart in the source
[4] = human; remark: listed apart in the source
[5] = Highest frequency of acute liver toxicity observed during clinical trials, expressed as a percentage. [column '% AIGUE' in source]; details: human
[6] = human, serum, 4383 h
[7] = human, serum
[8] = human; remark: listed apart in the source
[9] = Highest frequency of moderate liver toxicity observed during clinical trials, expressed as a percentage. [column '% BIOL' in source]; details: human
[10] = human; remark: listed apart in the source
[11] = human; remark: listed apart in the source
[12] = human, serum; remark: listed apart in the source
[13] = human; remark: listed apart in the source
[14] = human; remark: listed apart in the source
[15] = human; remark: listed apart in the source
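For Hepatotoxicity (association with vascular disease) in this document: count of indexed literature references reporting vascular liver injury in humans, e.g. peliosis hepatitis, hepatic veno-occlusive disease or Budd-Chiari syndrome.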
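For Hepatotoxicity (benign tumour) in this document: value is a count of indexed literature references citing a benign tumour confirmed by histopathology.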
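For Hepatotoxicity (choleostasis) in this document: human cholestatic liver injury, shown by histopathology or by peak ALT or AST elevation over alkaline phosphatase ratio below 2, value counts indexed literature reports.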
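For Hepatotoxicity (chronic liver disease) in this document: chronic liver injury confirmed by histopathology or persistently raised serum aminotransferase activity beyond 6 months, value given as the count of indexed literature references.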
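For Hepatotoxicity (cirrhosis) in this document: value is a count of indexed literature references reporting cirrhosis confirmed by histopathology.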
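For Hepatotoxicity (cytolytic) in this document: human cytolytic liver injury, shown by histopathology or by a ratio above 5 of peak ALT or AST elevation to alkaline phosphatase elevation, value counts indexed references.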
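For Hepatotoxicity (granulomatous hepatitis) in this document: value is a count of indexed literature references reporting granulomatous liver disease confirmed by histopathology.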
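For Hepatotoxicity (malignant tumour) in this document: malignant tumour confirmed by histopathology, value gives the count of indexed literature references reporting it.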
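For Hepatotoxicity (severe hepatitis) in this document: human clinical data: severe hepatitis, meaning potentially life-threatening liver failure or clinically observed cases, the value counts how many indexed literature references report it.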
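For Hepatotoxicity (steatosis) in this document: steatosis confirmed by histopathology, value is the count of indexed references.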

Compound | Hepatotoxicity (cytolytic) [1] | Hepatotoxicity (time to onset) [2] | Hepatotoxicity (benign tumour) [3] | Hepatotoxicity (severe hepatitis) [4] | Hepatotoxicity (acute) [5] [%] | Hepatotoxicity (chronic liver disease) [6] | Hepatotoxicity (acute) [7] | Hepatotoxicity (association with vascular disease) [8] | Hepatotoxicity (moderate) [9] [%] | Hepatotoxicity (cirrhosis) [10] | Hepatotoxicity (choleostasis) [11] | Hepatotoxicity (moderate) [12] | Hepatotoxicity (malignant tumour) [13] | Hepatotoxicity (steatosis) [14] | Hepatotoxicity (granulomatous hepatitis) [15] | further results
COc1ccc(CCN(C)CCCC2(c3ccc(OC)c(OC)c3)S(=O)(=O)CCCS2(=O)=O)cc1OC | 0 | 1 month | 0 | 0 | 0 | 0 | 1 | 0 | 6.7 | 0 | 1 | 2 | 0 | 0 | 0 | –
COCc1c(C(C)C)nc(C(C)C)c(/C=C/[C@@H](O)C[C@@H](O)CC(=O)O)c1-c1ccc(F)cc1 [CERIVASTATIN] | 1 | 3 weeks | 0 | – | – | 0 | – | 0 | – | 0 | 1 | – | 0 | 0 | 0 | –
CN(C)CCCC1(c2ccc(F)cc2)OCc2cc(C#N)ccc21 (centres undefined) [CITALOPRAM] | 1 | 4 weeks - 2 months | 0 | 1 | 0 | 0 | – | 0 | 5.3 | 0 | 1 | 2 | 0 | 0 | 0 | –
COc1cc2c(cc1OC)C(=O)C(CC1CCN(Cc3ccccc3)CC1)C2 (centres undefined) [DONEPEZIL] | 0 | 10 days - 12 days | 0 | 0 | 0 | 0 | 2 | – | 0 | 0 | 2 | 0 | 0 | 0 | 0 | –
O=C(NCC1CCCCN1)c1cc(OCC(F)(F)F)ccc1OCC(F)(F)F (centres undefined) [FLECAINIDE] | 1 | 2 days - 1 month | 0 | 0 | 0 | 0 | – | 0 | 36.7 | 0 | 2 | 3 | 0 | 0 | 0 | –
CC(C)n1c(/C=C/C(O)CC(O)CC(=O)O)c(-c2ccc(F)cc2)c2ccccc21 (centres undefined) [FLUVASTATIN] | – | 8 months | 0 | – | – | 0 | – | 0 | – | 0 | – | 36 | 0 | 0 | – | Hepatotoxicity (cytolytic) ([1]; Liver): 3; Hepatotoxicity (severe hepatitis) ([4]; Liver): 0; Hepatotoxicity (acute) ([5]; Liver): 1.2%; Hepatotoxicity (moderate) ([9]; Liver): 55%; Hepatotoxicity (choleostasis) ([11]; Liver): 2; Hepatotoxicity (granulomatous hepatitis) ([15]; Liver): 0
Cc1ccc(NC(=O)c2ccc(CN3CCN(C)CC3)cc2)cc1Nc1nccc(-c2cccnc2)n1 [IMATINIB] | 1 | 11 days - 12 days | 0 | – | – | 0 | – | 0 | – | 0 | 0 | 5 | 0 | 0 | 0 | Hepatotoxicity (severe hepatitis) ([4]; Liver): 1; Hepatotoxicity (moderate) ([9]; Liver): 100%
CC(C(=O)O)c1cccc(C(=O)c2ccccc2)c1 (centres undefined) [KETOPROFEN] | 3 | 2 days - 2 weeks | 0 | 2 | 0 | 0 | – | 0 | 2.5 | 0 | 5 | 3 | 0 | 3 | 0 | –
COC(=O)C1=C(C)NC(C)=C(C(=O)OCCN(C)Cc2ccccc2)C1c1cccc([N+](=O)[O-])c1 (centres undefined) [NICARDIPINE] | 0 | 2 months | 0 | 0 | 0 | 0 | – | 0 | 6.7 | 0 | 0 | 6 | 0 | 1 | 0 | –
O=C(O)CCc1nc(-c2ccccc2)c(-c2ccccc2)o1 [OXAPROZIN] | 2 | 2 weeks - 6 months | 0 | 1 | 0.1 | 0 | – | 0 | 20 | 0 | 0 | 4 | 0 | 0 | 0 | –
Cc1nnc2n1-c1ccc(Cl)cc1C(c1ccccc1Cl)=NC2 [TRIAZOLAM] | 1 | 4 months | 0 | – | – | 0 | – | 0 | – | 0 | 2 | 1 | 0 | 0 | 0 | Hepatotoxicity (severe hepatitis) ([4]; Liver): 2; Hepatotoxicity (moderate) ([9]; Liver): 0%
C[C@@H](c1ncncc1F)[C@](O)(Cn1cncn1)c1ccc(F)cc1F [VORICONAZOLE] | 1 | 1 day - 1 year | 0 | 1 | 0 | 0 | – | 0 | 9.5 | 0 | 1 | 10 | 0 | 0 | 0 | –
POVIDONE | 0 | – | 0 | 0 | 0 | 0 | 0 | 0 | 0 | 1 | 0 | 0 | 0 | 0 | 0 | –
REVIPARIN SODIUM | 0 | – | 0 | 0 | 0 | 0 | 0 | 0 | 10.3 | 0 | 0 | 1 | 0 | 0 | 0 | –
SODIUM NITROPRUSSIDE | 0 | – | 0 | 0 | 0 | 0 | 0 | 0 | 41 | 0 | 0 | 1 | 0 | 0 | 0 | –
TINZAPARIN SODIUM | 0 | – | 0 | 0 | 0 | 0 | 0 | 0 | 35 | 0 | 0 | 3 | 0 | 0 | 0 | –
